Source: article PMC3684770 (Free Radical Biology & Medicine, 2013)
“And” between values parts separate entries of the source, which are not always exact repeats. Equal values may be shown once. Where a name gives a salt, the structure may show the parent alone.

Experiments:
Nrf2-ARE pathway [1] = assay: ARE reporter assay in CHO 4xARE-TK-GFP cells (Spectrum library hits); conditions: for Toxic dose: lowest dose at which a reduction in GFP fluorescence was observed
NQO1 protein expression = assay: Western blot NQO1 in wild-type MEFs; type: cell-based, mouse; conditions: EC90 concentration, 24 h
Method: Cells were isolated and lysed in a RIPA buffer containing protease inhibitor cocktail (Roche), quantified for protein content by Bradford assay, and loaded 30 μg per sample. Samples were run on a 12.5% acrylamide gel under reducing conditions with a prestained marker and transferred to polyvinylidene fluoride membrane and blocked in 5% milk. Mouse anti-alpha-tubulin, clone DM1A (Sigma), and rabbit anti-NQO1 (kind gift from Prof. John Hayes, University of Dundee) were used at 1 in 1000 dilution in Tris-buffered saline containing Tween. Polyclonal goat anti-mouse (Abcam-Ab97040) and polyclonal goat anti-rabbit (Dako Cat. No. P0448), horseradish peroxidase-conjugated secondary antibodies were used for detection of relevant primary antibodies. Bands were visualised by enhanced chemiluminescence reagents (Geneflow EZ-ECL kit). Relative band intensities were captured, using subsaturation, and quantified using a Gbox iChem XT digital imaging system (Syngene).

[2] = system: HO-1 and NQO1 gene expression; assay: Q-RTPCR of Nrf2-regulated genes in C6 cells; type: cell-based, rat; conditions: C6, 24-h treatment at EC50 and EC90
Method: (§1) Nrf2 Target gene expression was determined using Q-RTPCR as described previously using the following primers: Ho-1 forward primer, cac ttc gtc aga ggc ctg cta; Ho-1 reverse primer, gcg gtg tct ggg atg agc ta; Nqo1 forward primer, cgc ctg agc cca gat att gt; Nqo1 reverse primer, act gca atg gga act gaa ata tca; GAPDH forward, gaa acc tgc caa gta tga tga cat; GAPDH reverse, ggt cct cag tgt agc cca aga t.

[3] = system: HO-1 and NQO1 gene expression; assay: Q-RTPCR of Nrf2-regulated genes in primary mouse astrocytes; type: cell-based; conditions: 24-h treatment at EC50 and EC90
Method: as §1

[4] = system: NQO1 and HO-1 gene expression; assay: Q-RTPCR in astrocytes from SOD1G93A transgenic mice; type: cell-based, mouse; conditions: G93A SOD1 astrocytes, 24-h pretreatment at EC90 (andrographolide also EC50)
Method: as §1

heme oxygenase 1 (HO-1) = assay: HO-1 immunofluorescence staining in primary mouse astrocytes; type: cell-based; conditions: EC90 concentration, 24 h
primary mouse astrocytes = assay: Total glutathione assay in primary mouse astrocytes and conditioned media; type: cell-based; conditions: 24-h pretreatment
Method: Primary astrocytes were grown to confluency in 24-well plates and then treated with drug (or 0.05% DMSO vehicle) in phenol red-free DMEM containing 10% FBS and penicillin/streptomycin for 24 h. Conditioned medium was collected and astrocytes were then washed in ice-cold PBS before addition of 250 μl/well of sulphosalicylic acid (SSA, 5% (w/v)). Plates were frozen at −80 °C and thawed at 37 °C, twice, and then incubated at 4 °C for 15 min. The supernatant was removed and centrifuged at 13,000 g for 5 min. Conditioned medium samples were incubated at 80 °C for 15 min and then centrifuged at 13,000 g for 5 min. Samples were either used immediately or stored at −80 °C. Reaction mixture (150 μl/well; 100 mM potassium phosphate buffer, pH 7.0, 1 mM EDTA, 6 Units/ml glutathione reductase, 1.5 mg/ml 5,5′-dithiobis(2-nitrobenzoic acid)) was added to 10 μl of each sample or glutathione standard (0–50 μM reduced glutathione) in a 96-well plate and incubated at room temperature for 5 min before addition of 50 μl/well of NADPH solution (0.16 mg/ml). A412nm was measured every minute for 15 min and the total glutathione concentration (GSH + GSSG) was calculated from initial rates. Samples were tested in triplicate.

[5] = system: primary mouse motor neurons; assay: Primary motor neuron/astrocyte coculture, menadione stress; type: cell-based; conditions: 24-h pretreatment, 6 h 10 µM menadione
Method: Mouse glial cultures were established based on published methods [[68,69]]. Primary spinal cord motor neurons (MNs) were cultured from E13.5 C57Bl/6 mouse embryos as described previously. Cocultures were allowed to establish for 2 weeks and neuroprotection assays performed. Cocultures were exposed to drug or vehicle for 24 h followed by a 6-h treatment with menadione (10 μM) to induce oxidative stress or with no stress to determine the effect of drug alone. Following stress treatment, coverslips were washed 3 times, fixed, and permeabilised, and MNs immunostained with SMI32 (Covance, UK). Total MNs were counted by fluorescence microscopy in a 1.5 cm^2 area per coverslip. A minimum of three repeats in triplicate were performed per condition. Both vehicle and drug treatments were counted with and without stress treatment, and results were analysed by two-way ANOVA using Bonferroni post tests.

P-glycoprotein = system: P-glycoprotein; design: method as in PMID 19093450; conditions: cited from earlier work
C6 astrocyte cell line = assay: C6 oxidative stress assay (serum withdrawal, DCF); conditions: for Emax / IC50: Rattus norvegicus, Astrocyte; for Emax: 24 h, read-out: C6 oxidative stress assay Max reduction; for IC50: read-out: C6 oxidative stress assay IC50; for C6 oxidative stress assay Toxic dose: minimum dose at which toxicity was observed
Method: (§2) Media were then replaced with serum-free, phenol-free media for 5 h.

NSC34 cells = assay: NSC34 oxidative stress assay (serum withdrawal, DCF); conditions: for Emax: NSC-34, 24 h, read-out: NSC34 oxidative stress assay Max reduction; for NSC34 oxidative stress assay Toxic dose: minimum dose at which toxicity was observed
Method: as §2

[6] = system: 1321N1 astrocyte cell line; assay: 1321N1 oxidative stress assay (serum withdrawal, DCF); conditions: for Emax / IC50: Homo sapiens; for Emax: 1321-N1, 24 h, read-out: 1321N1 oxidative stress assay Max reduction; for IC50: 1321-N1, read-out: 1321N1 oxidative stress assay IC50; for 1321N1 oxidative stress assay Toxic dose: minimum dose at which toxicity was observed
Method: as §2

Nrf2-ARE pathway [7] = assay: ARE reporter assay in C6 astrocyte cell line (C6-ARE); type: cell-based, rat; conditions: C6-ARE, highest dose
Excerpt: Chinese hamster ovary (CHO), NSC34 mouse motor neuronal cells […] The ARE-TK-GFP and TK-GFP reporter constructs were a kind gift from William E. Fahl McArdle Laboratory for Cancer Research, University of Wisconsin. […] The NSC34 cell lines stably expressing G93A mutant hSOD1 have been described previously. […] Mouse embryonic fibroblasts were generated and maintained as described previously.

D4 receptors = conditions: read-out: Ki D4 receptors; cited from earlier work
D1 receptors = conditions: read-out: Ki D1 receptors; cited from earlier work
[8] = Pharmacokinetic analysis in C57Bl/6 mice; type: in vivo, mouse; conditions: 1 mg/kg
Method: Pharmacokinetic studies were performed by Pharmidex (London, UK). […] All concentrations were calculated with reference to the relevant standard curve. An extraction buffer (EB) solution of acetonitrile with 0.1% formic acid (Fisher Scientific, HPLC grade) and 500 ng/ml of propranolol as the internal standard (IS) was used for in all extraction protocols.

[9] = system: primary fibroblasts from ALS patients; assay: Oxidative stress assay in ALS patient and control fibroblasts; type: cell-based, human; conditions: 3.7 or 0.41 µM, 24 h
Method: Fibroblasts were obtained from human controls (n=3) and ALS patients with I113T SOD1 mutations (n=3) and sporadic ALS patients (n=2). […] The cells were incubated at 37 °C/5% CO2 overnight. The following day the media were removed and the cells were washed with 200 µl 1XP BS. Phenol red-free DMEM/F12 media (Sigma D6434) was added in the presence of 10% serum/2 mM Gln (++), 10% serum/0 mM Gln (+−), or 0% serum/0 mM Gln (−−). Cells were incubated at 37 °C/5% CO2 for 5 h.
Carboxy-H2DCFDA fluorescence was normalised to live cell number (total EthD1 signal after freeze/thaw – EthD1 signal after assay) to compare between the different cell lines. Data were analysed by one-way ANOVA with Bonferroni post tests using GraphPad Prism
DMEM/F12 (50 µl) media were added in the presence of 10% serum/0 mM Gln (+−) and the cells were incubated at 37 °C and 5% CO2 for 5 h.
The data were tested for normality and analysed by one-way ANOVA using GraphPad Prism.

[10] = mouse ref 73; cited from earlier work
[11] = cited from earlier work

## C=C1CC[C@@H]2[C@](C)(CO)[C@H](O)CC[C@@]2(C)[C@@H]1C/C=C1/C(=O)OC[C@H]1O [Andrographolide]
Nrf2-ARE pathway [1]; Cricetulus griseus
  EC50: 0.74 µM
Nrf2-ARE pathway [1]; Cricetulus griseus, CHO, 24 h, read-out: Fold GFP induction
  maximal fold induction: 3.61
Nrf2-ARE pathway [1]
  Toxic dose: 100 µM
NQO1 protein expression
  NQO1 protein expression, fold over vehicle: 3.6 fold and > 3 fold
[2]
  HO-1 and NQO1 gene expression: statistically significant changes in gene expression
[3]
  HO-1 and NQO1 gene expression: statistically significant changes in gene expression
[4]
  transcripts for NQO1 and HO1: significant increase in transcripts
Heme oxygenase 1 (HO-1)
  HO-1 staining index: significant increase in HO-1 staining
Primary mouse astrocytes
  total glutathione levels: enhance glutathione production
[5]
  motor neuron numbers after menadione: significant neuroprotective effects
P-glycoprotein
  P-glycoprotein substrate: substrate
C6 astrocyte cell line
  Emax: 69%
  IC50: 0.192 µM
  C6 oxidative stress assay Toxic dose: 10 µM
NSC34 cells; Mus musculus
  Emax: 0%
NSC34 cells
  NSC34 oxidative stress assay Toxic dose: 10 µM
[6]
  Emax: 35%
  IC50: 0.501 µM
  1321N1 oxidative stress assay Toxic dose: 10 µM

## CN1CCc2cccc3c2[C@H]1Cc1ccc(O)c(O)c1-3 [Apomorphine hydrochloride, reference compound]
Nrf2-ARE pathway [1]; Cricetulus griseus
  EC50: 25.9 µM
Nrf2-ARE pathway [1]
  Toxic dose: 100 µM
Nrf2-ARE pathway [7]
  dose showing toxicity: 30 µM
D4 receptors
  Ki: 0.0044 µM
D1 receptors
  Ki: 0.37 µM
C6 astrocyte cell line
  Emax: 62%
  IC50: 1.69 µM
  C6 oxidative stress assay Toxic dose: None
NSC34 cells; Mus musculus
  Emax: 25%
NSC34 cells; Mus musculus, NSC-34, read-out: NSC34 oxidative stress assay IC50
  IC50: 0.174 µM
NSC34 cells
  NSC34 oxidative stress assay Toxic dose: 10 µM
[6]
  Emax: 79%
  IC50: 1.7 µM
  1321N1 oxidative stress assay Toxic dose: None

## CN1CCc2cccc3c2[C@H]1Cc1ccc(O)c(O)c1-3 [apomorphine]
[8]; C57Bl/6, mouse, brain / plasma, intravenous, read-out: brain:plasma (Kp)
  Kp: 2.1
[8]; C57Bl/6, plasma, mouse, iv
  clearance: 109 mL/min/kg
[9]
  cell number compared to DMSO control: no effect on cell number
[10]
  plasma protein binding fraction (unbound): 0.222
[11]; humans ref 75
  fraction absorbed following subcutaneous dosing: 1
[11]; humans ref 76
  Tmax following subcutaneous dosing: 8 to 16 min
